In patent US20040180879A1, “Novel method of treating vasomotor symptoms” (priority 2002, published 2004):
Entries after “also recorded” stand apart in the source; their conditions may differ.

What was measured:
[1] = desipramine 300-500 mg/day; fluoxetine 20 mg/day; cited from earlier work
[2] = test system: morphine-dependent rat model (MD model) of hot flush; assay: morphine-dependent naloxone-induced flush (MD model) of hot flush, tail skin temperature; format: in vivo; settings: for effect of the combination with 5-HT2a receptor antagonist on abating naloxone-induced flush: MDL-100907 0.01 mg/kg sc + desipramine 1 mg/kg or venlafaxine 10 mg/kg sc; for effect on MDL-100907-induced pre-naloxone flush (words): given sc 40 min prior to naloxone, after MDL-100907 0.01 mg/kg (55 min prior), desipramine 1 mg/kg; for effect on MDL-100907-induced pre-naloxone flush (words) / abatement of 5-HT2a receptor antagonist-induced pre-naloxone flush: venlafaxine 10 mg/kg, 15 min pre-naloxone; for abatement of 5-HT2a receptor antagonist-induced pre-naloxone flush: given sc after MDL-100907 (0.01 mg/kg), desipramine 1.0 mg/kg, compared to MDL treated animals

CNCCC(Oc1ccc(C(F)(F)F)cc1)c1ccccc1 (centres unmarked) [fluoxetine]
side effects of high doses alone [1]: can induce vomiting, nausea, sweating and flushes

COc1ccc(C(CN(C)C)C2(O)CCCCC2)cc1 (centres unmarked) [venlafaxine]
effect of the combination with 5-HT2a receptor antagonist on abating naloxone-induced flush ([2]; 15 min post-naloxone): enhanced abatement of a naloxone-induced flush; also recorded: can enhance this effect
effect on MDL-100907-induced pre-naloxone flush (words) [2]: abates an MDL-100907-induced flush
effect on MDL-100907-induced pre-naloxone flush (words) ([2]; listed as Venlafaxine): reversed
abatement of 5-HT2a receptor antagonist-induced pre-naloxone flush [2]: 60%

COc1cc(CC(C)N)c(OC)cc1I (centres unmarked) [DOI]
effect of 5-HT2a receptor agonist on MDL-100907-induced flush ([2]; DOI 0.3 mg/kg sc, 15 min prior to MDL-100907 (0.01 and 0.1 mg/kg)): block; also recorded: abated; also recorded: abatement

CNCCCN1c2ccccc2CCc2ccccc21 [desipramine]
effect of the combination with 5-HT2a receptor antagonist on abating naloxone-induced flush ([2]; 15 min post-naloxone): efficacy can be enhanced
abatement of naloxone-induced flush on co-administration with 5-HT2a receptor antagonist ([2]; desipramine 1.0 mg/kg sc + MDL-100907 0.01 mg/kg sc, 15 min post-naloxone): 80%
abatement of naloxone-induced hot flush ([2]; desipramine alone, approximate ED50 (1.0 mg/kg sc), ovariectomized morphine-dependent rats): 50%
effect on MDL-100907-induced pre-naloxone flush (words) [2]: abates an MDL-100907-induced flush
effect on MDL-100907-induced pre-naloxone flush (words) ([2]; listed as Desipramine): reversed
abatement of 5-HT2a receptor antagonist-induced pre-naloxone flush [2]: 75%
side effects of high doses alone [1]: can induce vomiting, nausea, sweating and flushes

COc1cccc(C(O)C2CCN(CCc3ccc(F)cc3)CC2)c1OC (stereo not drawn) [MDL-100907, (+)-α-(2,3-dimethoxyphenyl)-1-[2-(4-fluorophenyl)ethyl]-4-piperidinemethanol]
effect of the combination with 5-HT2a receptor antagonist on abating naloxone-induced flush ([2]; 15 min post-naloxone, listed as MDL-100902): enhances desipramine's effect on abating naloxone-induced flush; also recorded: enhances venlafaxine's effect on a naloxone-induced flush
effect of 5-HT2a receptor antagonist on DOI alleviation of naloxone-induced flush ([2]; MDL-100907 (0.01 and 0.1 mg/kg sc) after DOI 0.3 mg/kg sc, maximal flush, 15 min post-naloxone): reverse the efficacy of the 5-HT2a agonist in abating the naloxone-induced flush; also recorded: reversed the DOI alleviation of the naloxone-induced flush
effect on tail skin temperature (TST) prior to naloxone (5-HT2a antagonist-induced flush) ([2]; MDL-100907 alone, 0.01 mg/kg sc, 55 min prior to naloxone, 0.01 mg/kg): induced hot flush; also recorded: induced a significant increase in TST
effect on naloxone-induced hot flush ([2]; MDL-100907 alone, 0.01 mg/kg sc, post-naloxone): enhanced the naloxone-induced hot flush
